Experimental data reported in US20240025906A1 (NEURON23, INC., priority 2022, published 2024).

Key:
[1] = tested on: JAK1/TYK2 pSTAT5 (Tyr694/699) in THP-1 cell line; experiment: IFNa-stimulated JAK1/TYK2 pSTAT5 (Tyr694/699) inhibition cellular assay, AlphaLISA; assay type: cell-based; settings: Homo sapiens; THP-1 cells, IFNa-stimulated, AlphaLISA (Assay B); read-out: Cellular_THP1_IFNa-pSTATS_TYK2
Method in brief: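 Compound dilutions were dispensed first, and HBSS-suspended THP-1 cells were added on top (final top concentration 10000 nM, 6-fold series). After 1 h at 37 °C, IFNa (100 ng/mL as added) was applied for 30 min. Cells were then lysed and pSTAT5 was quantified by AlphaLISA.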

TYK2 JH2 = target: T1, TYK2 JH2 (Homo sapiens, UniProt P29597); experiment: TYK2 JH2 binding assay (KINOMEscan KdELECT competitive binding); settings: TYK2 JH2 domain, DiscoverX KINOMEscan KdELECT (Assay A); read-out: Biochemical TYK2_DiscoverX_JH2_BND_Kd
T1 construct: purchased DiscoverX (KINOMEscan KdELECT service); host or cells: E. coli BL21-derived (T7 phage display) or HEK-293
Method in brief: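 JH2-domain fragment, expressed as T7 phage tag in BL21-derived E. coli or DNA-tagged from HEK-293, competed with test compound against bead-immobilized biotinylated ligand in binding buffer (0.9% DMSO). 1 h shaking at room temperature; bound kinase eluted with 0.5 μM free ligand and quantified by qPCR. Kd from 11-point 3-fold dilutions.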

T1 sequence (P29597 589-875 limits assumed): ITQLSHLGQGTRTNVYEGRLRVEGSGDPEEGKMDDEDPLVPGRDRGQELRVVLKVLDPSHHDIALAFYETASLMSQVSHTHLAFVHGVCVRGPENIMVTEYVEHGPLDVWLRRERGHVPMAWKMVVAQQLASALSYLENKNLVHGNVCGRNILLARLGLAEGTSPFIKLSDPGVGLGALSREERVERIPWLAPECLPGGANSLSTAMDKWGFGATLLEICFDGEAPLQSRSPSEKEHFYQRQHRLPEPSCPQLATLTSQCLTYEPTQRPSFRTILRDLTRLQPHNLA

| Compound | IC50 [1] [nM] | Kd (TYK2 JH2) [nM] |
| --- | --- | --- |
| CNc1ncc(-c2nc3cc(-c4ncn(C)n4)ccc3o2)c2cc(NC(=O)C3CC3)ncc12 [Example 464, N-(5-(5-(1-methyl-1H-1,2,4-triazol-3-yl)benzo[d]oxazol-2-yl)-8-(methylamino)-2,7-naphthyridin-3-yl)cyclopropanecarboxamide] | ≤ 500 | ≤ 100 |
| [2H]C([2H])([2H])Nc1ncc(-c2nc3cc(N4CC(OC)C4)ccc3o2)c2cc(NC(=O)[C@H]3C[C@H]3C)ncc12 [Example 469, (1S,2R)—N-(5-(5-(3-methoxyazetidin-1-yl)benzo[d]oxazol-2-yl)-8-((methyl-d3)amino)-2,7-naphthyridin-3-yl)-2-methylcyclopropane-1-carboxamide] | ≤ 500 | ≤ 100 |
| CNc1ncc(-c2nc3ccc(OC)cn3n2)c2cc(NC(=O)C3CC3)ncc12 [Example 470, N-(5-(6-methoxy-[1,2,4]triazolo[1,5-a]pyridin-2-yl)-8-(methylamino)-2,7-naphthyridin-3-yl)cyclopropanecarboxamide] | ≤ 500 | ≤ 100 |
| CNc1ncc(-c2nc3ccc(N4CCOCC4)cn3n2)c2cc(NC(=O)C3CC3)ncc12 [Example 471, N-(8-(methylamino)-5-(6-morpholino-[1,2,4]triazolo[1,5-a]pyridin-2-yl)-2,7-naphthyridin-3-yl)cyclopropanecarboxamide] | ≤ 500 | ≤ 100 |
| CNc1ncc(-c2nc3ccc(N4CC(F)(F)C4)cn3n2)c2cc(NC(=O)C3CC3)ncc12 [Example 472, N-(5-(6-(3,3-difluoroazetidin-1-yl)-[1,2,4]triazolo[1,5-a]pyridin-2-yl)-8-(methylamino)-2,7-naphthyridin-3-yl)cyclopropanecarboxamide] | ≤ 500 | ≤ 100 |
| CNc1ncc(-c2nc3ccc(N4CC(F)C4)cn3n2)c2cc(NC(=O)C3CC3)ncc12 [Example 473, N-(5-(6-(3-fluoroazetidin-1-yl)-[1,2,4]triazolo[1,5-a]pyridin-2-yl)-8-(methylamino)-2,7-naphthyridin-3-yl)cyclopropanecarboxamide] | ≤ 500 | ≤ 100 |
| CNc1ncc(-c2nc3ccc(N4CCC4)cn3n2)c2cc(NC(=O)C3CC3)ncc12 [Example 474, N-(5-(6-(azetidin-1-yl)-[1,2,4]triazolo[1,5-a]pyridin-2-yl)-8-(methylamino)-2,7-naphthyridin-3-yl)cyclopropanecarboxamide] | ≤ 500 | ≤ 100 |
| CNc1ncc(-c2nc3ccc(N4CC(O)C4)cn3n2)c2cc(NC(=O)C3CC3)ncc12 [Example 475, N-(5-(6-(3-hydroxyazetidin-1-yl)-[1,2,4]triazolo[1,5-a]pyridin-2-yl)-8-(methylamino)-2,7-naphthyridin-3-yl)cyclopropanecarboxamide] | ≤ 500 | ≤ 100 |
| CNc1ncc(-c2nc3ccc(N4CC(OC)C4)cn3n2)c2cc(NC(=O)C3CC3)ncc12 [Example 476, N-(5-(6-(3-methoxyazetidin-1-yl)-[1,2,4]triazolo[1,5-a]pyridin-2-yl)-8-(methylamino)-2,7-naphthyridin-3-yl)cyclopropanecarboxamide] | ≤ 500 | ≤ 100 |
| CNc1ncc(-c2nc3ccc(N4CCO[C@H](C)C4)cn3n2)c2cc(NC(=O)C3CC3)ncc12 [Example 477, (R)-N-(8-(methylamino)-5-(6-(2-methylmorpholino)-[1,2,4]triazolo[1,5-a]pyridin-2-yl)-2,7-naphthyridin-3-yl)cyclopropanecarboxamide] | ≤ 500 | ≤ 100 |
| CNc1ncc(-c2nc3ccc(N4CCO[C@@H](C)C4)cn3n2)c2cc(NC(=O)C3CC3)ncc12 [Example 478, (S)-N-(8-(methylamino)-5-(6-(2-methylmorpholino)-[1,2,4]triazolo[1,5-a]pyridin-2-yl)-2,7-naphthyridin-3-yl)cyclopropanecarboxamide] | ≤ 500 | ≤ 100 |
